Assay results as given in patent US20230167108A1, “CRYSTAL OF IMIDAZOPYRIDINONE COMPOUND OR SALT THEREOF” (Kissei Pharmaceutical Co., Ltd., priority 2020, published 2023).
pIC50: −log10 of the molar value.

Columns and labels:
human PHD2184-418 = target: T1, human PHD2184-418 (Homo sapiens, UniProt Q9GZT9); assay: PHD2 inhibitory test (fluorescence polarization, FITC-labeled HIF-1α556-574); type: binding; conditions: 2 μM 2-oxoglutarate, 37° C. for 60 minutes
T1 construct: containing amino acid residues 184 to 418 of the protein represented by CAC42509; histidine tag (N); made in house; host or cells: E. coli BL21 (DE3), pET-30a (+) vector
T1 sequence (Q9GZT9 184-418): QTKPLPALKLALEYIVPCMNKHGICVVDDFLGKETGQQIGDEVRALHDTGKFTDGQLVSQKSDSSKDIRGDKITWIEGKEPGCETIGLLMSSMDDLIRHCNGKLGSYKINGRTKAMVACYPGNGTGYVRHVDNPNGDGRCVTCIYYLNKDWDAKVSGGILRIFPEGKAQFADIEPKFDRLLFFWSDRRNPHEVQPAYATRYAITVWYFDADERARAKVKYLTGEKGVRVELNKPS
Experimental: Test Example 1 PHD2 Inhibitory Test
(1) Expression and Preparation of Human […]
Human PHD2184-418 is containing amino acid residues 184 to 418 of the protein represented by CAC42509 (GenBank accession ID) was expressed and prepared by the following method.
An expression construct of human PHD2184-418 containing an N-terminal histidine tag was introduced into pET-30a (+) vector, and the sequence was confirmed. This vector was introduced into BL21 (DE3) strain and cultured at 37° C. in LB medium containing antibiotics. After culturing, a cell lysis solution was added to the cells, and then the cells were disrupted and suspended by sonication. The disrupted suspension was centrifuged, and the supernatant was purified by Ni column to give human PHD2184-418.
Human HIF-1α556-574 (FITC-labeled HIF-1α556-574), containing FITC-Ahx at the N-terminal of HIF-1α556-574 containing amino acid residues 556 to 574 (partial peptide) of human HIF-1α, was used as a substrate. Using FITC-labeled HIF-1α556-574, the competitive inhibition between 2-oxoglutarate and the test compound ([…]) was evaluated based on the change in fluorescence polarization of FITC-labeled HIF-1α556-574 by the following method.
An enzyme (human PHD2184-418) and the substrate were diluted with an assay buffer (pH 7.4) containing 10 mM HEPES, 150 mM NaCl, 10 μM MnCl2-4H2O, 2 μM 2-oxoglutarate and 0.05% Tween-20. […]

[1] = system: TNBS induced colitis model rat; assay: Therapeutic effect in colitis model (suppression of intestinal permeability of FITC); type: in vivo; conditions: 3 mg/kg orally once a day for 3 days, serum FITC, mean
Experimental: Test Example 2 Therapeutic Effect in Colitis Model
(1) TNBS Induced Colitis Model Rat
Thus, the suppressive effect on the intestinal permeability based on oral administration of the test compound was evaluated as an indicator of medicinal efficacy.
SD male rats: 8-week-old SIX (Japan SLC) were used, Under pentobarbital anesthesia, 300 μL of 28 mg/mL TNBS which was adjusted with 50% ethanol was administered at a point 8 cm from the anus in the large intestine to cause inflammation. To the solvent-treated group was administrated 300 μL of 50% ethanol. Animals were fasted for 48 hours prior to administration of TNBS. The test compound (3 mg/kg) prepared with 0.05% methylcellulose solution was orally administered once a day from the next day, and it was administered for a total of 3 days. After administering for 3 clays, 50 mg/kg FITC was orally administered 4 hours after the administration of the test compound. Blood samples were collected from jugular vein under isoflurane anesthesia after 4 hours. The serum was centrifuged, and fluorescence intensity was detected by PHERAstar FSX (BMG Labtech) to measure the concentration of FITC permeating into circulating blood through the mesentery. The suppressive rate on the intestinal permeability of the test compound was calculated based on the value of the test substance-free group as 0 and the value of the TNBS-untreated group as 100.

[2] = Rat PK study: concentration of compound in large intestine tissue and plasma; type: in vivo; conditions: 3 mg/kg oral, non-fasted SD rats
Experimental: Test Example 3 Concentration of Compound in Large Intestine Tissue
The test compound (3 mg/kg/5 mL) prepared with 0.05% methylcellulose was orally administered to non-fasted rats (SD, 8-week-old, male, T SLC). Blood samples were collected from jugular vein 0.25, 0.5, 1, 2, 4, 6 and […] hours after the administration. Laparotomy was performed under isoflurane anesthesia, and the large intestine was isolated. The collected distal large intestine (about 5 cm) was cut open, and then the large intestine extracted was washed with saline on a dish. After washing, the large intestine was minced with small scissors. About 150 mg thereof was moved to a tube. To the tube was added 100 μL of saline, and the mixture was homogenized using shake master (1000 rpm×30 minutes). Samples were prepared by the addition with quadruple volume of saline as the final volume. The concentrations of the test compound in the large intestine tissue and the plasma were measured through a quantitative analysis using liquid chromatography-mass spectrometry (LC/MS).
Cmax: maximum plasma concentration of the test compound in the case of oral administration (ng/mL) AUC: area under the plasma test compound concentration-time curve (ng*min/mL) Plasma: plasma test compound concentration after 8 hours (ng/mL) Colon: concentration of the test compound in the large intestine tissue after hours (ng/g) C/P: ratio of the above Colon and Plasma

[3] = Solid stability test (physicochemical and chemical stability of crystals); conditions: open condition at 40° C., 1 month; for Amount of the mass change of the compound 1: HPLC area normalization; for Properties: appearance; for Crystal form change: powder X-ray diffraction
Excerpt: Test Example 4: Solid Stability Test
The physicochemical stability and chemical stability for the crystals of the compound 1 (crystal forms I to III), the crystals of the methanesulfonic acid salt of the compound 1 (crystal forms I, II and IV), the crystals of the hydrochloride (crystal forms I and III), the crystal form I of the p-toluenesulfonic acid salt, the crystal form I of the sodium salt and the crystal form I of the calcium salt were examined.
Physicochemical stability: Each crystal was stored under open condition at 40° C. The powder X-ray diffraction of the sample was measured at the initial point and 1 month later, and the change in crystal form Was confirmed. The change in properties was also observed at the same time. Chemical stability: Each crystal was stored under open condition at 40° C. The mass of the compound 1 in the sample was measured under the following HPLC measurement conditions at the initial point and 1 month later.
Detector: Ultraviolet and visible absorptiometer/wavelength: 225 nm
Column: L-column 2 ODS, 3 μm, 4.6×150 mm (Chemicals Evaluation and Research Institute)
Column temperature: Constant temperature around 40° C. Flow rate: 1.0 mL/min Mobile phase A: Potassium dihydrogenphosphate and dipotassium hydrogenphosphate aqueous solution adjusted to 10 mmol/L with water Mobile phase B: Acetonitrile Mobile phase ratios: 0 to 30 minutes: mobile phase A/mobile phase B=88/12 30 to 50 minutes: mobile phase A/mobile phase B=88/12 to 25/75 50 to 55 minutes: mobile phase A/mobile phase B=25/75 55 to 55.01 minutes: mobile phase A/mobile phase B=25/75 to 88/12 55.01 to 75 minutes: mobile phase Airmobile phase B=88/12 Amount of injection: 5 μL Sample cooler: 4° C. Dissolution solvent: Mixed solution (mobile phase A/acetonitrile=75/25) Sample solution: Sample was dissolved in dissolution solvent and adjusted to about 1 mg/mL
Excluding the peaks derived from the blank, the peak areas of the compound 1 and an analogous substance were measured by automatic integration, and the mass of the compound 1 was calculated by area normalization method. Further, the amount of the mass change of the compound 1 after the storage was calculated.

Compound | IC50 (human PHD2 binding inhibitory activity) (human PHD2184-418) | pIC50 (human PHD2184-418; read-out: IC50 (human PHD2 binding inhibitory activity)) | Inhibition (%): suppressive rate on the intestinal permeability [1] [%] | Inhibition (%): suppressive rate on the intestinal permeability ([1]; listed as compound 1) | C/P: ratio of Colon and Plasma [2] | Colon: concentration of the test compound in the large intestine tissue ([2]; distal large intestine) [ng/g] | Kp ([2]; male, rat, large intestine tissue / plasma, read-out: C/P: ratio of Colon and Plasma) | concentration at 8 h ([2]; male, rat, plasma, 8 hours, read-out: Plasma: plasma test compound concentration after 8 hours) [ng/mL] | AUC ([2]; male, rat, plasma, read-out: AUC: area under the plasma test compound concentration-time curve (converted)) [ng·h/mL] | Cmax ([2]; male, rat, plasma, read-out: Cmax: maximum plasma concentration of the test compound) [ng/mL] | Amount of the mass change of the compound 1 [3] | Properties [3] | Crystal form change [3]
Cn1c(C(=O)O)cnc1CN1CC[C@H](n2c(=O)n(-c3ccc(-c4ccc(C(=O)O)cc4)nc3)c3cccnc32)C1 [Compound 1, 2-{[(3S)-3-{1-[6-(4-Carboxyphenyl)pyridin-3-yl]-2-oxo-2,3-dihydro-1H-imidazo[4,5-b]pyridin-3-yl}pyrrolidin-1-yl]methyl}-1-methyl-1H-imidazole-5-carboxylic Acid] | inhibited binding between PHD2 and HIF-1α | 6.74 | 101 | suppressed | higher concentration in the large intestine tissue than the concentration in the plasma | 164 | > 164 | < 1 | 1.95 | 1 | – | – | –
Cn1c(C(=O)O)cnc1CN1CC[C@H](n2c(=O)n(-c3ccc(-c4ccc(C(=O)O)cc4)nc3)c3cccnc32)C1 [Crystal form I of the compound 1] | – | – | – | – | – | – | – | – | – | – | No change | White powder, no change | No change
Cn1c(C(=O)O)cnc1CN1CC[C@H](n2c(=O)n(-c3ccc(-c4ccc(C(=O)O)cc4)nc3)c3cccnc32)C1 [Crystal form II of the compound 1] | – | – | – | – | – | – | – | – | – | – | −0.03% | White powder, no change | No change
Cn1c(C(=O)O)cnc1CN1CC[C@H](n2c(=O)n(-c3ccc(-c4ccc(C(=O)O)cc4)nc3)c3cccnc32)C1 [Crystal form III of the compound 1] | – | – | – | – | – | – | – | – | – | – | −0.04% | White powder, no change | No change
